System: Raphanus sativus
Assay: Root growth promotion test: main root length of Raphanus sativus seedlings in seed growing bag
Format: in vivo
Conditions: compound 2 at 3 ppm, compound I at 10 ppm, mixture 3 ppm compound 2 + 10 ppm compound I; seeds on cardboard impregnated with 17 ml solution; 25° C., 7 days; average of three repeats
Description: One (1) part of each of the compound 2 and the compound I was dissolved in 99 parts of dimethyl sulfoxide and each of the resultant solutions was diluted with ion-exchange water so as to adjust the concentrations of the compound 2 and the compound I to 3 ppm and 10 ppm, respectively to thereby prepare respective test chemical solutions.
In the same manner, chemical solutions were prepared so as to adjust the concentrations of the compound 2 and the compound I to 6 ppm and 20 ppm, respectively, and then the respective chemical solutions were mixed in an equivalent amount to prepare a mixed test chemical solution containing 3 ppm of the compound 2 and 10 ppm of the compound I.
A cardboard in a seed growing bag (measuring 177 mm×163 mm, manufactured by Daiki Rika Kogyo Co., Ltd.) was impregnated with 17 ml of each of these test chemical solutions, and 3 seeds of Raphanus sativus were sown on the cardboard. The seed growing bag was placed in a plastic container, and the plastic container was sealed. After culturing in a bright place at 25° C. for 7 days, the length of main root was measured. For comparison, the test was conducted in the same manner without treating with the test chemical solution, and the length of the main root was measured. […]

O=C(O)CCC(=O)NCCc1ccccc1 [Compound I, 4-oxo-4-[(2-phenylethyl)amino]-butyric acid]
Relative value (main root length, non-treated control group as 100): 148

Source: patent publication US20120135863A1, “COMPOSITION AND METHOD FOR PROMOTING PLANT ROOT GROWTH” (priority 2009, published 2012)
